# Results published in patent US20230192774A1, “IMM[…] POLYOMAVIRUSES” (The Council of the Queensland Institute of Medical Research, priority 2019, published 2023).
# Entries after “also recorded” stand apart in the source; their conditions may differ.
# Columns and labels:
# Format in all cases: cell-based, human
# HLA class II = HLA class II restriction analysis with peptide-loaded LCLs, IFN-γ ICS assay; details: LCLs matching one single HLA allele of the donor loaded with peptide for 1 hour
# Description: Specifically, the HLA class II-restriction of VDLHAFLSQAVFSNR (SEQ ID NO: 2) (LT29), FLSQAVFSNRTVASF (SEQ ID NO: 3) (LT30) and TVASFAVYTTKEKAQ (SEQ ID NO: 4) (LT32) peptides as HLA DRB1*10:01 is shown. Briefly, a panel of lymphoblastoid cells (LCLs) matching one single allele of the HLA type of the donor were chosen and loaded with respective peptide for 1 hour. The loaded LCLs were then used as stimulator cells in an IFN-γ ICS assay. The peptide, when presented by the MHC, elicits an IFN-γ response in JCV-specific T cells. […]
# CD4^+ T cells = assay: intracellular cytokine assay of T cells expanded with synthetic JCV peptides; details: PBMC from healthy volunteers cultured 12-14 days with cytokines
# Description: JCV-specific T cells were expanded in vitro following stimulation with pooled JCV epitopes. Specifically, PBMC from healthy volunteers were stimulated with synthetic JCV peptides (Table 1) for 1 hour and then cultured for 12-14 days in the presence of different cytokine combinations, including IL-2 (10 ng/ml), IL7 (10 ng/ml), IL12 (10 ng/ml) and/or IL15 (10 ng/ml). The JCV specificity of the expanded T cells was assessed using standard intracellular cytokine assays (Table 6).
# Peptide-specific T cells = assay: T cell cross-reactivity between JCV and BKV epitopes (intracellular cytokine assay); details: for BKV cross-reactivity: CD4^+ T cell responses to JCV peptides; for recognition of BKV and JCV peptide by T cells expanded with the epitope: expanded with one epitope, re-stimulated with JCV or BKV epitope, IFN-γ
# Excerpt: ICS FACS plots show the expression of IFN-γ in T cells expanded with either BKV epitope (SSGTQQWRGLARYFK (SEQ ID NO: 33)) or JCV epitope (RSGSQQWRGLSRYFK (SEQ ID NO: 12)). These primed T cells were stimulated using both BKV and JCV peptide showing that the T cells expanded with either of these epitopes recognize both BKV and JCV peptide sequences.
# Peptide-specific T cells were expanded in vitro following stimulation with JCV epitope or BKV epitope and then re-stimulated with the corresponding […] peptide epitope (see Table 2) so as to observe any cross-reactive response between JCV and BKV epitopes. Specifically, PBMC from healthy volunteers were cultured with synthetic JCV peptide epitope RSGSQQWRGLSRYFK (SEQ ID NO: 12) or with synthetic BKV peptide epitope SSGTQQWRGLARYFK (SEQ ID NO: 33). Following initial expansion, each sample was re-stimulated (re-called) with either JCV epitope RSGSQQWRGLSRYFK (SEQ ID NO: 12) or BKV epitope SSGTQQWRGLARYFK (SEQ ID NO: 33) (wherein samples re-called with the same epitope act as internal controls). The reactivity of the expanded T cells was assessed using standard intracellular cytokine assays (see FIG. 4).
# JCV-specific T cells = assay: two-dimensional peptide matrix epitope mapping, IFN-γ ICS assay; details: FACS, individual LTA overlapping peptides
# Excerpt: JCV-specific T cells expanded in vitro using the OPPs were further characterized by identifying specific T cell determinants. […] The response using the subpools were overlayed on a two dimensional matrix, thus showing the common individual peptides among the pools. […] Figure discloses SEQ ID NOS 2-4, respectively, in order of appearance.
# In order to precisely map the HLA class I and class II-restricted T cell responses, individual overlapping peptides (15 aa long overlapping by 10 aa) were sourced for LTA, STA and VP1 proteins for T cell epitope mapping. A two-dimensional peptide matrix was used to distribute all individual peptides into small overlapping peptide pools. For example, in the case of Large T Antigen, the matrix is arranged such that each peptide of the pools (LTA1 to LTA24) occurs once on the ordinate. The T cell response for each pool was measured by intracellular cytokine-staining (ICS) IFN-γ assay (see FIG. 2A) and the data overlayed on a two dimensional matrix as follows.
# Thus, the common individual peptides among pools that elicited a T cell response were identified, i.e., peptide 32 (P32) at the intersection of row LTA4 and column LTA16 and peptides P29 and P30 at the intersection of row LTA3 with columns LTA23 and LTA24.
Sequence,HLA Restriction (HLA class II),%IFNγ^+CD4^+ with 0.1 μg/ml peptide (CD4^+ T cells),%IFNγ^+CD4^+ with 1 μg/ml peptide (CD4^+ T cells),BKV cross-reactivity (Peptide-specific T cells),T cell response for individual peptide in the IFN-γ ICS assay (JCV-specific T cells),recognition of BKV and JCV peptide by T cells expanded with the epitope (Peptide-specific T cells)
LRSSPLVWIDCYCFD (listed as Betapolyomavirus secuhominis),DRB1*15:01,0.4%,1.81%,,,
TCGNILMWEAVTLKT (listed as Betapolyomavirus secuhominis),DRB1*15:01,2.65%,4.83%,Yes,,
VDLHAFLSQAVFSNR (listed as Betapolyomavirus secuhominis),DRB1*10:01,20.26%,25.49%,Yes,elicit a JCV-specific T cell response,
EQYMAGVAWIHCLLP (listed as Betapolyomavirus secuhominis),DRB1*04:01 &; also recorded: DRB1*03:01,2.5%,2.9%,Yes,,
DPDMMRYVDKYGQLQ,DRB1*04:02,2.1%,4.5%,Yes,,
SSGTQQWRGLARYFK,,,,,,recognize both the BKV and JCV peptide sequence
NFLYKKMEQGVKVAH (listed as Betapolyomavirus secuhominis),DRB1*15:01,0.2%,1.2%,,,
MTREEMLVERFNFLL (listed as Betapolyomavirus secuhominis),DRB1*04:01 &; also recorded: DRB1*03:01,2%,3.8%,Yes,,
ERLNFELGVGIDQFM (listed as Betapolyomavirus secuhominis),DRB1*15:01,2.2%,6.32%,Yes,,
SICQQAVDTVAAKQR (listed as Betapolyomavirus secuhominis),DRB1*04:01 &; also recorded: DQB1*02:02,0.24%,4.38%,Yes,,
RKAYLKKCKELHPDK (listed as Betapolyomavirus secuhominis),DRB1*13:01,9.2%,10.4%,Yes,,
FLSQAVFSNRTVASF (listed as Betapolyomavirus secuhominis),DRB1*10:01,34.1%,38.39%,Yes,elicit a JCV-specific T cell response,
RYWLFKGPIDSGKTT [identical BKV homologue],DRB1*15:01,2.35%,4.05%,Yes,,
RSGSQQWRGLSRYFK,DRB1*11:01,7.8%,8.4%,Yes,,recognize both the BKV and JCV peptide sequence
RNRKFLRSSPLVWID (listed as Betapolyomavirus secuhominis),DRB1*15:01,0.6%,3.03%,,,
SITEVECFLTPEMGD (listed as Betapolyomavirus secuhominis),DRB1*01:01 &; also recorded: DQB1*05:01,2.8%,2.71%,Yes,,
KMKRMNFLYKKMEQG (listed as Betapolyomavirus secuhominis),DRB1*15:01,0.4%,1.4%,Yes,,
IDQFMVVFEDVKGTG (listed as Betapolyomavirus secuhominis),DRB1*14:04/; also recorded: DQB1*05:03,18.5%,24.8%,Yes,,
SKNQKSICQQAVDTV (listed as Betapolyomavirus secuhominis) [identical BKV homologue],DRB1*04:01 &; also recorded: DQB1*02:02,0.41%,2.31%,Yes,,
MDKVLNREESMELMD (listed as Betapolyomavirus secuhominis) [identical BKV homologue],DRB1*01:01,1.65%,5.26%,Yes,,
GGHNILFFLTPHRHR (listed as Betapolyomavirus secuhominis),DRB1*16:O1,1.28%,6.15%,Yes,,
TVASFAVYTTKEKAQ (listed as Betapolyomavirus secuhominis),DRB1*10:01,6.4%,7.34%,Yes,elicit a JCV-specific T cell response,
